Laboratory results taken from PubChem BioAssay AID248 (DTP/NCI, 2004).
Several values for one entry are separate records, joined by “and”; a condition that tells them apart may be missing. Identical values can stand only once. Toxic doses and inconclusive results are not listed. Rule as the data show it: active = T/C of 150% or more; inactive = T/C below 125%.

Test system: L1210 leukemia ip in BDF1 mice, survival T/C
Assay: NCI In Vivo Anticancer Drug Screen. Data for tumor model L1210 Leukemia (intraperitoneal) in B6D2F1 (BDF1) mice
Conditions: endpoint: mean survival time, higher = longer survival
Procedure, shortened: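 Tumor was transplanted into mice, which were then dosed with test compound or vehicle alone. Survival was recorded for each group, and the treated figure was expressed relative to the control figure.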

[1] = dose: 100.0 mg/kg/injection, schedule: Q04DX003 (ip), vehicle: saline
[2] = dose: 200.0 mg/kg/injection, schedule: Q04DX003 (ip), vehicle: saline
[3] = dose: 400.0 mg/kg/injection, schedule: Q04DX003 (ip), vehicle: saline
[4] = dose: 100.0 mg/kg/injection, schedule: Q01DX001 (ip), vehicle: saline
[5] = dose: 100.0 mg/kg/injection, schedule: Q01DX009 (ip), vehicle: saline
[6] = dose: 200.0 mg/kg/injection, schedule: Q01DX001 (ip), vehicle: saline
[7] = dose: 400.0 mg/kg/injection, schedule: Q01DX001 (ip), vehicle: saline
[8] = dose: 100.0 mg/kg/injection, schedule: Q01DX009 (ip), vehicle: Klucel (hydroxypropylcellulose) (HPC)
[9] = dose: 200.0 mg/kg/injection, schedule: Q01DX009 (ip), vehicle: Klucel (hydroxypropylcellulose) (HPC)
[10] = dose: 400.0 mg/kg/injection, schedule: Q01DX009 (ip), vehicle: Klucel (hydroxypropylcellulose) (HPC)
[11] = dose: 100.0 mg/kg/injection, schedule: Q04DX002 (ip), vehicle: Klucel (hydroxypropylcellulose) (HPC)
[12] = dose: 200.0 mg/kg/injection, schedule: Q04DX002 (ip), vehicle: Klucel (hydroxypropylcellulose) (HPC)
[13] = dose: 400.0 mg/kg/injection, schedule: Q04DX002 (ip), vehicle: Klucel (hydroxypropylcellulose) (HPC)
[14] = dose: 100.0 mg/kg/injection, schedule: Q04DX003 (ip), vehicle: Klucel (hydroxypropylcellulose) (HPC)
[15] = dose: 200.0 mg/kg/injection, schedule: Q04DX003 (ip), vehicle: Klucel (hydroxypropylcellulose) (HPC)
[16] = dose: 400.0 mg/kg/injection, schedule: Q04DX003 (ip), vehicle: Klucel (hydroxypropylcellulose) (HPC)

Measured: T/C

Nc1ncnc2c1ncn2C1OC(CO)C(O)C1OCc1ccccc1 (stereo not given)
inactive: dose: 100.0 mg/kg/injection, schedule: Q01DX005 (ip), vehicle: saline 90 % of control | dose: 200.0 mg/kg/injection, schedule: Q01DX005 (ip), vehicle: saline 103 % of control

CNC(=O)Oc1cccc2c1OC(C)(C)C2
inactive: dose: 1.56 mg/kg/injection, schedule: Q01DX001 (ip), vehicle: Klucel (hydroxypropylcellulose) (HPC) 96 % of control | dose: 3.13 mg/kg/injection, schedule: Q01DX001 (ip), vehicle: Klucel (hydroxypropylcellulose) (HPC) 103 % of control

ClC1(Cl)CC1c1ccccc1 (stereo not given)
inactive: dose: 100.0 mg/kg/injection, schedule: Q01DX009 (ip), vehicle: saline with Tween-80 101 % of control | dose: 200.0 mg/kg/injection, schedule: Q01DX009 (ip), vehicle: saline with Tween-80 91 % of control

CCOC(=O)C(O)(CC)c1ccncc1C (stereo not given)
inactive: [1] 96 % of control | [2] 98 % of control | [3] 100 % of control

N=C(N)SCCN
inactive: [4] 97 % of control | [5] 103 % of control | [6] 90 % of control | dose: 200.0 mg/kg/injection, schedule: Q01DX009 (ip), vehicle: saline 111 % of control | [7] 118 % of control

CCCCSCCOC(=O)Nc1ccc(Cl)cc1
inactive: [8] 103 % of control | [9] 108 % of control | [10] 92 % of control

CC(=O)OCC1OC(n2ncc3c(=O)[nH]cnc32)C(OC(C)=O)C1OC(C)=O (stereo not given)
inactive: dose: 12.5 mg/kg/injection, schedule: Q01DX005 (ip), vehicle: water 103 % of control | dose: 25.0 mg/kg/injection, schedule: Q01DX005 (ip), vehicle: water 104 % of control | dose: 50.0 mg/kg/injection, schedule: Q01DX005 (ip), vehicle: water 97 % of control | dose: 100.0 mg/kg/injection, schedule: Q01DX005 (ip), vehicle: water 98 % of control | dose: 200.0 mg/kg/injection, schedule: Q01DX005 (ip), vehicle: water 92 % of control

CNS(C)(=O)=O
inactive: [4] 108 % of control | [1] 101 % of control | [6] 106 % of control | [2] 104 % of control | [7] 95 % of control | [3] 106 % of control

Cc1ccc(-c2ccccc2)n1-c1ccccc1O
inactive: dose: 50.0 mg/kg/injection, schedule: Q01DX001 (ip), vehicle: other 104 % of control | dose: 100.0 mg/kg/injection, schedule: Q01DX001 (ip), vehicle: other 102 % of control | dose: 200.0 mg/kg/injection, schedule: Q01DX001 (ip), vehicle: other 96 % of control | dose: 400.0 mg/kg/injection, schedule: Q01DX001 (ip), vehicle: other 98 % of control

O=[N+]([O-])c1ccc(O)c(N=Cc2ccccc2)c1
inactive: [4] 97 % of control | [6] 96 % of control | [7] 100 % of control

CCOc1ccc(/C=N/NC(=O)c2ccccc2N)cc1OC
inactive: [11] 97 % of control | [12] 102 % of control | [13] 105 % of control

O=C(O)c1cccc(N2C(=O)CSC2=S)c1
inactive: dose: 25.0 mg/kg/injection, schedule: Q04DX002 (ip), vehicle: Klucel (hydroxypropylcellulose) (HPC) 94 % of control | dose: 50.0 mg/kg/injection, schedule: Q04DX002 (ip), vehicle: Klucel (hydroxypropylcellulose) (HPC) 93 % of control and 91 % of control | [11] 93 % of control and 102 % of control | [12] 88 % of control

O=C(Nc1ccccc1F)Oc1ccc(F)cc1
inactive: dose: 100.0 mg/kg/injection, schedule: Q01DX001 (ip), vehicle: Klucel (hydroxypropylcellulose) (HPC) 97 % of control | [8] 102 % of control and 91 % of control | [11] 101 % of control and 89 % of control | dose: 200.0 mg/kg/injection, schedule: Q01DX001 (ip), vehicle: Klucel (hydroxypropylcellulose) (HPC) 97 % of control | [9] 98 % of control and 109 % of control | [12] 96 % of control and 98 % of control | dose: 400.0 mg/kg/injection, schedule: Q01DX001 (ip), vehicle: Klucel (hydroxypropylcellulose) (HPC) 96 % of control | [10] 98 % of control and 107 % of control | [13] 101 % of control and 104 % of control

CCOC(=O)c1cnc(=O)n(Cc2ccccc2)c1N
inactive: dose: 100.0 mg/kg/injection, schedule: Q04DX002 (ip), vehicle: other 98 % of control | dose: 200.0 mg/kg/injection, schedule: Q04DX002 (ip), vehicle: other 95 % of control | dose: 400.0 mg/kg/injection, schedule: Q04DX002 (ip), vehicle: other 98 % of control

Cc1c2ccn(CCCCCCCCn3ccc4c(C)c5nc6ccccc6c5c(C)c4c3)cc2c(C)c2c1nc1ccccc12
inactive: dose: 0.78 mg/kg/injection, schedule: Q04DX003 (ip), vehicle: other 98 % of control | dose: 1.56 mg/kg/injection, schedule: Q04DX003 (ip), vehicle: other 104 % of control | dose: 3.13 mg/kg/injection, schedule: Q04DX003 (ip), vehicle: other 104 % of control | dose: 6.25 mg/kg/injection, schedule: Q04DX003 (ip), vehicle: other 112 % of control | dose: 12.5 mg/kg/injection, schedule: Q04DX003 (ip), vehicle: other 118 % of control | dose: 25.0 mg/kg/injection, schedule: Q04DX003 (ip), vehicle: other 115 % of control | dose: 50.0 mg/kg/injection, schedule: Q04DX003 (ip), vehicle: other 98 % of control | dose: 100.0 mg/kg/injection, schedule: Q04DX003 (ip), vehicle: other 109 % of control

N#CC1(O)C(Cl)(Cl)CCCC1(Cl)Cl
inactive: dose: 6.25 mg/kg/injection, schedule: Q01DX009 (ip), vehicle: saline with Tween-80 91 % of control | dose: 12.5 mg/kg/injection, schedule: Q01DX009 (ip), vehicle: saline with Tween-80 97 % of control | dose: 25.0 mg/kg/injection, schedule: Q01DX009 (ip), vehicle: saline with Tween-80 94 % of control

C[S+](C)CCCCCC[S+](C)C
inactive: [1] 102 % of control

Cc1cc(OC(=O)c2ccc(N)cc2)ccc1C1=NCC(C)S1 (stereo not given)
inactive: dose: 25.0 mg/kg/injection, schedule: Q04DX002 (ip), vehicle: DMSO 89 % of control | dose: 50.0 mg/kg/injection, schedule: Q04DX002 (ip), vehicle: DMSO 92 % of control | dose: 100.0 mg/kg/injection, schedule: Q04DX002 (ip), vehicle: DMSO 100 % of control

CCCCCCCC(=O)NO
inactive: dose: 100.0 mg/kg/injection, schedule: Q04DX003 (ip), vehicle: saline with Tween-80 98 % of control | dose: 200.0 mg/kg/injection, schedule: Q04DX003 (ip), vehicle: saline with Tween-80 102 % of control | dose: 400.0 mg/kg/injection, schedule: Q04DX003 (ip), vehicle: saline with Tween-80 102 % of control

CCCCCCCC/C=C\CCCCCCCC(=O)OCCCCCCCCCCCCCCCCC
inactive: dose: 75.0 mg/kg/injection, schedule: Q01DX009 (ip), vehicle: saline sonified 106 % of control | [8] 94 % of control | dose: 150.0 mg/kg/injection, schedule: Q01DX009 (ip), vehicle: saline sonified 104 % of control | [9] 91 % of control | dose: 300.0 mg/kg/injection, schedule: Q01DX009 (ip), vehicle: saline sonified 96 % of control | [10] 110 % of control

C/C(=N\[N+](C)(C)C)c1ccc(Br)cc1
inactive: dose: 12.5 mg/kg/injection, schedule: Q04DX003 (ip), vehicle: saline 109 % of control | dose: 25.0 mg/kg/injection, schedule: Q01DX009 (ip), vehicle: saline 92 % of control | dose: 25.0 mg/kg/injection, schedule: Q04DX003 (ip), vehicle: saline 100 % of control | dose: 50.0 mg/kg/injection, schedule: Q01DX009 (ip), vehicle: saline 91 % of control | dose: 50.0 mg/kg/injection, schedule: Q04DX003 (ip), vehicle: saline 104 % of control | [5] 91 % of control | [1] 102 % of control

NC(=O)Nc1cccc(C(=O)O)c1
inactive: [8] 89 % of control | [14] 92 % of control | [9] 87 % of control | [15] 92 % of control | [10] 87 % of control | [16] 96 % of control

OCC1CC(n2cnc3c(=S)nc[nH]c32)C(O)C1O (stereo not given)
inactive: dose: 50.0 mg/kg/injection, schedule: Q01DX001 (ip), vehicle: saline 96 % of control | [4] 96 % of control | [6] 96 % of control

Cc1ccc(C)c(OS(=O)(=O)c2ccc([N+](=O)[O-])cc2)c1
inactive: [8] 98 % of control | [14] 100 % of control | [9] 92 % of control | [15] 91 % of control | [10] 97 % of control | [16] 89 % of control
